From publication PMC3972617 (Xenobiotica; the fate of foreign compounds in biological …, 2013)

Columns and labels:
[1] = test system: primary mouse hepatocytes; test: LDH release cytotoxicity in cultured primary mouse hepatocytes; assay type: cell-based; details: 24 h exposure
[2] = test system: ketoprofen-induced small intestinal injury; test: Ketoprofen-induced enteropathy in mice; assay type: in vivo, male C57BL/6J mice; details: Inh-1 10 μg/mouse po bid for 2 days before ketoprofen 100 mg/kg ip; 18 h
[3] = test system: diclofenac (DCF)-induced small intestinal injury; test: Diclofenac-induced enteropathy in mice; assay type: in vivo, male C57BL/6J mice
[4] = Pharmacokinetic profiling of Inhibitor-1 in mice; assay type: in vivo; details: for AUC(0-t): AUC0–24 h
[5] = test system: diclofenac (DCF)-induced small intestinal injury; details: Inh-1 given prior to DCF (60 mg/kg, ip); ref LoGuidice et al., 2012; cited from earlier work
[6] = test system: indomethacin-induced small intestinal injury; test: Indomethacin-induced enteropathy in mice
[7] = single oral dose Inh-1 10 μg/mouse 3 h after DCF 60 mg/kg ip, 18 h after DCF
[8] = C57BL/6J, mouse, plasma, iv, 3 mg/kg, Inh-1 3 mg/kg iv, vehicle pretreatment
[9] = C57BL/6J, mouse, plasma, po, 3 mg/kg, Inh-1 3 mg/kg po, vehicle pretreatment

SMILES: O=C(O)Cc1ccccc1Nc1c(Cl)cccc1Cl [DCF, diclofenac, reference compound]
- LDH release from the cells ([1]; DCF 1000 μM): significant increases in LDH release

SMILES: CCOc1ccc(NC(=S)N(CCO)Cc2cc3cc(C)cc(C)c3[nH]c2=O)cc1 [Inh-1, 1-((6,8-dimethyl-2-oxo-1,2-dihydroquinolin-3-yl)methyl)-3-(4-ethoxyphenyl)-1-(2-hydroxyethyl)thiourea]
- co-treated mice with an ulcer (one small ulcer) [2]: 1/11
- protection against DCF-induced enteropathy, post-treatment ([3]; Inh-1 administered 3-h post-DCF (60 mg/kg, ip)): partial protection
- average area of total ulcers per mouse versus DCF alone [3, 7]: not significantly different
- reduction of average ulcer number per mouse versus DCF controls [3, 7]: 71%
- LDH release versus solvent controls ([1]; Inh-1 100 μM alone): did not significantly increase LDH release
- effect on DCF concentration-toxic response curve (LDH release) ([1]; Inh-1 100 μM with DCF 500 or 1000 μM): did not alter the concentration-toxic response curve
- AUC(0-t) [4, 8]: 4380 ng·h/mL
- Cmax [4, 8]: 7190 ng/mL
- half-life ([4]; C57BL/6J, mouse, plasma, iv, 3 mg/kg, T1/2, Inh-1 3 mg/kg iv, vehicle pretreatment): 42 min
- AUC(0-t) [4, 9]: 925 ng·h/mL
- Cmax [4, 9]: 513 ng/mL
- Tmax ([4]; C57BL/6J, mouse, plasma, po, 3 mg/kg, Tmax, Inh-1 3 mg/kg po, vehicle pretreatment): 30 min
- time at which maximal plasma levels were attained ([4]; single oral administration of Inh-1 3 mg/kg): 30 min
- protection against DCF-induced enteropathy, pretreatment [5]: complete protection
- decrease of total area of indomethacin-induced intestinal injury ([6]; Inh-1 10 μg/mouse po bid for 2 days, last dose 1 h before indomethacin 10 mg/kg ip, 18 h post-dose): 89%
- NBT staining of jejunal mucosa (oxidoreductive stress) ([6]; Inh-1/indomethacin co-treated mice, 1 mM nitroblue tetrazolium incubation): remained unstained

SMILES: COc1ccc2c(c1)c(CC(=O)O)c(C)n2C(=O)c1ccc(Cl)cc1 [indomethacin, Indomethacin, reference compound]
- small intestinal mucosal ulceration ([6]; single dose of indomethacin alone 10 mg/kg ip, 18 h, majority of lesions in quartiles 2 and 3): marked mucosal ulceration
